Consider 23 molecules from paper PMC4686872 (European journal of medicinal chemistry, 2015).

Converted amounts (≈) assume the structure as drawn. Where two headings read alike, the source gives them in different places. A value given as a limit tells only on which side of the number the result lay.

One data set concerns MRSA. Description: Broth microdilution MIC against MRSA, summarised over the strains tested. It counts as cell-based, Staphylococcus aureus. As to conditions: for MIC: Staphylococcus aureus, MRSA, read-out: MIC against MRSA; for antimicrobial activity against MRSA (in words): strains as named in the sentence. For orientation: Dilution methods test growth across graded concentrations, often in twofold steps.

In another data set the test system is MRSA USA300. Description: Minimum bactericidal concentration.
The next data set deals with VRSA (VRS2). Description: Broth microdilution MIC, VRSA VRS2. It is filed as cell-based, Staphylococcus aureus. As to conditions: vancomycin-resistant S. aureus VRS2.
Data set [1] deals with murine macrophage (J774) cell line. Description: MTS cytotoxicity assay.
Data set [2] can be described thus: Kinetic solubility screen in PBS. It counts as physicochemical.
For data set [3], the system named is Caco-2 bilayer. As to the kind of experiment: Caco-2 permeability assay. In general terms: Caco-2 monolayers are a common model of the intestinal barrier.
Data set [4] relates to Caco-2 bilayer.
The next data set in a line: in vitro. As to conditions: human, Caco-2.
The mark [5] stands for this setting: 64 µM / up to a concentration of 64 µM.
[6] abbreviates: 128 µM (data not presented), all toxic, exception = not toxic.

In general, MIC refers to the lowest concentration found to suppress growth. As a reminder, the Papp A→B is how fast a substance crosses the layer from the apical side. Low readings indicate slow passage, high ones fast passage.

As to `[C-]#[N+]c1ccccc1/C=C(\CC)c1ccccc1` [Compound 1], the MIC with MRSA lay within 8 to 64 µM (≈ 1.87 to 14.9 µg/mL). In addition, the bacteriostatic or bactericidal entry in the data set on MRSA USA300 is listed as “bacteriostatic”.

Consider `[C-]#[N+]c1ccccc1CP(=O)(OCC)OCC` [Compound 4a], for which, in the data set on VRSA (VRS2), the “Minimum inhibitory concentration (MIC), VRSA2 VRS 2” value was greater than 128 µM. Further, in the data set on MRSA, the “antimicrobial activity against MRSA (in words)” value (“antimicrobial activity” below) is “complete loss of activity”. On to `[C-]#[N+]c1ccccc1/C=C(\CC)c1ccc(OC)cc1` [Compound 11], for which the “toxicity to J774 cells” value in data set [1] (setting [5]) is given as “toxic”. As for `[C-]#[N+]c1ccccc1/C=C(\CC)c1cccc(C(F)(F)F)c1` [Compound 12], the “toxicity to J774 cells” value in data set [1] (setting [5]) is “toxic”. Take `[C-]#[N+]c1ccccc1/C=C/c1ccccc1` [Compound 13]: in the data set with MRSA, the minimal inhibitory concentration (MIC) is no less than 2 µM. Moreover, the “reduction in the MIC against MRSA” value in the data set with MRSA (relative to compound 1 (removal of the ethyl group)) is “two-to-eight fold”. The “Solubility Analysis” value in data set [2] was “Low solubility”. The “toxicity to J774 cells” value in data set [1] (setting [5]) was “neither compound was toxic”. The “Permeability Analysis” value in the data set with Caco-2 bilayer [3] is “Not permeable”. As to `[C-]#[N+]c1ccccc1/C=C/c1cccc(OC)c1` [Compound 15], in data set [1] (setting [6]), the “toxicity to J774 cells” value is on record as “exception”. `[C-]#[N+]c1ccccc1/C=C/c1cccc(F)c1` [Compound 19]: the “toxicity to J774 cells” value in data set [1] (setting [5]) is on record as “toxic”. For `[C-]#[N+]c1ccccc1/C=C/c1ccc(C)cc1` [Compound 23], in the data set on MRSA, the minimal inhibitory concentration (MIC) was 4 to 64 µM (≈ 0.877 to 14 µg/mL) and the “antimicrobial activity” value was “active against all MRSA strains tested”. As for `[C-]#[N+]c1ccccc1/C=C/c1ccc(CCCC)cc1` [Compound 24], the “antimicrobial activity” value in the data set with MRSA is “lacked activity against most MRSA strains tested”. Take `[C-]#[N+]c1ccccc1/C=C/c1ccc([N+](=O)[O-])cc1` [Compound 25]: the “toxicity to J774 cells” value in data set [1] (32 µM, all not toxic, exception = toxic) was “exception”; in data set [1] (setting [5]), “toxic”. `[C-]#[N+]c1ccccc1C=C1CCCCC1` [Compound 26]: in the data set with MRSA, the “antimicrobial activity” value was “inactive against several MRSA isolates”.

Consider `[C-]#[N+]c1ccccc1/C=C/c1ccccn1` [Compound 27], for which, in the data set with MRSA, the “antimicrobial activity” value was “reduced antimicrobial activities”. Turning to `[C-]#[N+]c1ccccc1/C=C/c1cccnc1` [Compound 30], the “antimicrobial activity” value in the data set on MRSA was “reduced antimicrobial activities”. Also, the “toxicity to J774 cells” value in data set [1] (setting [6]) was “exception”. Consider `[C-]#[N+]c1ccccc1/C=C/c1ccncc1` [Compound 33], for which the “antimicrobial activity” value in the data set on MRSA is listed as “reduced antimicrobial activities”. For the molecule `[C-]#[N+]c1ccc(/C=C/c2ccccc2)cc1` [Compound 37], in data set [1] (setting [6]), the “toxicity to J774 cells” value is reported as “exception”. With `CC/C(=C\c1ccccc1)c1ccccc1` [Compound 42], the “antimicrobial activity” value in the data set on MRSA is on record as “complete loss in the anti-MRSA activity”. Consider `N#Cc1ccccc1/C=C/c1ccccc1` [Compound 43], for which the “antimicrobial activity” value with MRSA is given as “complete loss of antimicrobial activity”. On the same count and under the same terms, next, `[C-]#[N+]c1ccccc1-c1ccccc1` [Compound 46]: “lacks activity against three strains of MRSA”. With `[C-]#[N+]c1ccc(C)cc1-c1ccc(C(C)(C)C)cc1` [Compound 49], the “antimicrobial activity” value in the data set with MRSA is listed as “loss in antimicrobial activity”.

As to `[C-]#[N+]c1ccc(C)cc1-c1ccc(C(F)(F)F)cc1` [Compound 50], the “antimicrobial activity” value in the data set on MRSA is recorded as “loss in antimicrobial activity”. With `[C-]#[N+]c1ccccc1CCc1ccccc1` [Compound 53], the “antimicrobial activity” value with MRSA is “active against several strains”.

As to `CNC(=C[N+](=O)[O-])NCCSCc1ccc(CN(C)C)o1` [Ranitidine], in the data set with Caco-2 bilayer [4], the “Permeability Analysis” value is reported as “Low permeability”. This molecule also showed a Papp A→B in “in vitro” of 0.23 ×10⁻⁶ cm/s.

For `COC(=O)[C@H]1[C@H]2C[C@@H]3c4[nH]c5cc(OC)ccc5c4CCN3C[C@H]2C[C@@H](OC(=O)c2cc(OC)c(OC)c(OC)c2)[C@@H]1OC` [Reserpine, reference compound], the “Solubility Analysis” value in data set [2] is listed as “Low solubility”.
